From ChEMBL document CHEMBL5729478, “Alpha-5 beta-1 inhibitors” (2022)

Molecular target: Integrin alpha-5/beta-1 (Homo sapiens, UniProt P05556+P08648)
Experiment: Cell Adhesion Assay: Evaluation of cell attachment to extracellular matrix proteins was performed as previously described by Yokosaki et al, J. Biol. Chem., 271: (39): 24144-24150 (1996). Briefly, wells of non-tissue culture-treated polystyrene 96-well flat-bottom microtiter plates (Linbro/Titertek, Flow Laboratories, McLean, Va.) were coated by incubation with 100 μl of each substrate in PBS at 37° C. for 1 hour. 96-well flat-bottomed tissue culture plates were coated with human plasma fibronectin for 1 hour at 37° C. After incubation, wells were washed with PBS, then blocked with 1% bovine serum albumin (BSA) for one hour. Control wells were filled with 1% BSA. SW480 cells were detached using 10 mM EDTA and resuspended in serum-free DMEM. For blocking experiments, cells were incubated with 10 μg/ml of the antibody for 15 minutes at 4° C. before plating. The plates were centrifuged at 10 g for 5 minutes before incubation for 1 hour at 37° C. in humidified 5% CO2. Nonadherent cells were removed by centrifugation (top side down) at 10 g for 5 minutes. Attached cells were stained with 0.5% crystal violet, and the wells were washed with PBS. The relative number of cells in each well was evaluated after solubilization in 40 μl of 2% Triton X-100 by measuring absorbance at 595 nm in a microplate reader. All determinations were carried out in triplicate.

Sequence of Integrin alpha-5/beta-1 (P05556 21-798 limits assumed): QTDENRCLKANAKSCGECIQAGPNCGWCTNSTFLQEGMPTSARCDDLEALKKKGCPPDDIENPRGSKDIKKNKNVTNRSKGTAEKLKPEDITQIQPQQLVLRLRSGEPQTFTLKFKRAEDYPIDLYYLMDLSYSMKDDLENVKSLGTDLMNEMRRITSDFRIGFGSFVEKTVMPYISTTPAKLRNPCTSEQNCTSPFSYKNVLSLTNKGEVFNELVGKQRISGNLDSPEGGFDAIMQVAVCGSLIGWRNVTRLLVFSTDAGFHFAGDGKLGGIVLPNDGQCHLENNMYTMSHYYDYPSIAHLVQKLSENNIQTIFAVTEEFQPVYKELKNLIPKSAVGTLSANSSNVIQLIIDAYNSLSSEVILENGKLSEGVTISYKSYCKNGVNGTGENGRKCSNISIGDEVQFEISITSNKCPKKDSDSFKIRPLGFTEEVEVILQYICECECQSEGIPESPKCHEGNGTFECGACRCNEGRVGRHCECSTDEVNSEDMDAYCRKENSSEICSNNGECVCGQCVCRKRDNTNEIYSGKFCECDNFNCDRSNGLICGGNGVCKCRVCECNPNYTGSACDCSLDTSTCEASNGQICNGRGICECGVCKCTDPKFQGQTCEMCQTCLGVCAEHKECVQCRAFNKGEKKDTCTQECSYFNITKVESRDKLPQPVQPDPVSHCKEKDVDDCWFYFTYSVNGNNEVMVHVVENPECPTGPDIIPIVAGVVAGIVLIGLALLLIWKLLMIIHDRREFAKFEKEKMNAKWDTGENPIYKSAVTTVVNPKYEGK
Sequence of Integrin alpha-5/beta-1 (P08648 42-894 limits assumed): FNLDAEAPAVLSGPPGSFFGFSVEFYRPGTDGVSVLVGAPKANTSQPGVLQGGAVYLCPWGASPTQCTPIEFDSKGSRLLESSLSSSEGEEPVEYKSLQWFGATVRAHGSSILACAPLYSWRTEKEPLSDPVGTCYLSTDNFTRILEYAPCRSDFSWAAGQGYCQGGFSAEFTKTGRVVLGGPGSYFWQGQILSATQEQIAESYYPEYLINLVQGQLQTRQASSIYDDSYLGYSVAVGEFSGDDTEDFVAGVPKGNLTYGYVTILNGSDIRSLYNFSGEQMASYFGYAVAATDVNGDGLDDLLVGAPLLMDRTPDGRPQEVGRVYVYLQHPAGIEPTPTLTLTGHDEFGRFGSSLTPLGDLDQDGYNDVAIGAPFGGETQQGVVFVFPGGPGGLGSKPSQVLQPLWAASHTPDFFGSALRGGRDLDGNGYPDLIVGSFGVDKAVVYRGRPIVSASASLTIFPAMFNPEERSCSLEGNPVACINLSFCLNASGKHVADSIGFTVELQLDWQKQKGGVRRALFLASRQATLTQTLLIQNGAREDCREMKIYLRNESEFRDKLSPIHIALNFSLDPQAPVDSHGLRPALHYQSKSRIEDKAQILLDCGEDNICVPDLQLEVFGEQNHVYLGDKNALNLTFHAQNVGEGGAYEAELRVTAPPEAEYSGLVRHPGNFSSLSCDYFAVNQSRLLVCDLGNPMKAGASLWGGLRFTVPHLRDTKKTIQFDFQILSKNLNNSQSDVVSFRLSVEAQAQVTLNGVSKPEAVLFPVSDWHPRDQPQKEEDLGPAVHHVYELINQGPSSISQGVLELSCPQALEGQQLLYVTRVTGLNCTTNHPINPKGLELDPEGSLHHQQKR
Sequence of Integrin alpha-5/beta-1 (P08648 895-1049 limits assumed): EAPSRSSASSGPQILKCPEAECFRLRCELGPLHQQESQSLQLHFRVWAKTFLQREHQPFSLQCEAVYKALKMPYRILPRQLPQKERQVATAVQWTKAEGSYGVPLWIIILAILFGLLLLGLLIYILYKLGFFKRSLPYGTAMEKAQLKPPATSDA

IC50 | Structure (SMILES)
< 100 nM | O=C(CNC(=O)c1cccc(NC2=NCCCO2)c1)NC[C@H](NC(=O)c1c(Cl)cc(-c2ccccc2)cc1Cl)C(=O)O
< 100 nM | N#Cc1cc(NC(=N)N)cc(C(=O)NCC(=O)NC[C@H](NC(=O)c2c(Cl)cc(-c3ccccc3)cc2Cl)C(=O)O)c1
< 100 nM | O=C(CNC(=O)c1cccc(NC2=NCC(O)CN2)c1)NC[C@H](NC(=O)c1c(Cl)cc(-c2ccccc2)cc1Cl)C(=O)O (stereo partly drawn)
